Source: ChEMBL document CHEMBL5620412, “Discovery of benzofuran-2-carboxylic acid derivatives as lymphoid tyrosine phosphatase (LYP) inhibitors for cancer immunotherapy” (Eur J Med Chem, 2023)
Calls of active or inactive are those of the source. The rule behind the calls is not given here.

Target: T1, Tyrosine-protein phosphatase non-receptor type 22 (Homo sapiens) (UniProt Q9Y2R2)
T1 sequence (whole entry): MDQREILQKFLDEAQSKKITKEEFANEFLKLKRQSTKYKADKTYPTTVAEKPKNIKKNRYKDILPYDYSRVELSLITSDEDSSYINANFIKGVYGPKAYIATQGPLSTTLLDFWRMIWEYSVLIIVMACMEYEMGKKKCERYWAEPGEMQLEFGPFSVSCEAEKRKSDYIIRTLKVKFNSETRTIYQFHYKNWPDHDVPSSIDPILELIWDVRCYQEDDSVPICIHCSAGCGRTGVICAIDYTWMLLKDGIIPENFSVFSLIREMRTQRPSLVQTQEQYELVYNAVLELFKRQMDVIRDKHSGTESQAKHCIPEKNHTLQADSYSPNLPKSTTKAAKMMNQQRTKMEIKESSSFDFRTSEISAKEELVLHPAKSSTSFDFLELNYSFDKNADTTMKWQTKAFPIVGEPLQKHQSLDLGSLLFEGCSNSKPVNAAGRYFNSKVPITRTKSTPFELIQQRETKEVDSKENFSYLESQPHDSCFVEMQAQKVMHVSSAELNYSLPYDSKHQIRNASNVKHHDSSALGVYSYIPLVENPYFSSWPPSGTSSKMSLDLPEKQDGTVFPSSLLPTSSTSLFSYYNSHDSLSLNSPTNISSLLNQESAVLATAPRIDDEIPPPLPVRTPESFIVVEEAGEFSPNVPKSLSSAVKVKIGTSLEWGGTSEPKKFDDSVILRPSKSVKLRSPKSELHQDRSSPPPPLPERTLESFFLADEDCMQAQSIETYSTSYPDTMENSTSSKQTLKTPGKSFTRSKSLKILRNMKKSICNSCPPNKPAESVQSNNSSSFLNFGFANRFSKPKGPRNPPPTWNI
Test: Reversible binding affinity to N-terminal His-tagged LYP catalytic domain (1 to 294 residues) (unknown origin) expressed in Escherichia coli BL21 (DE3) cells using pNPP as substrate incubated for 10 to 90 mins by absorbance based assay
Details: time 10-90 min

- Activity: Active
SMILES: O=C(O)c1cc2cc(N(Cc3ccc(OCc4ccccc4)cc3)S(=O)(=O)c3ccc(-c4ccccc4)cc3)ccc2o1
